Source: the supplement of paper PMC11451515

Tested on: P12-Ichikawa
Assay: cell viability relative to DMSO control; higher = less cytotoxic
Details: 48 h
Outline: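 Viability was expressed as a per-plate percentage of DMSO wells, with cell-free wells as background. Leukemia cells (NOMO1 or SEM at 500 cells/well, P12-Ichikawa at 1000 cells/well) were adapted for at least four passages in each medium and seeded in 1536-well plates (5 μl). Library compounds in DMSO were pin-dosed over an 11-point threefold series from 47 μM to 0.79 nM, and CellTiter-Glo One luminescence was read after 48 h at 37°C.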

[1] = HPLM + 10% dialyzed FBS, 0.000781 µM
[2] = HPLM + 10% dialyzed FBS, 0.00234 µM
[3] = HPLM + 10% dialyzed FBS, 0.00702 µM
[4] = HPLM + 10% dialyzed FBS, 0.0211 µM
[5] = HPLM + 10% dialyzed FBS, 0.0632 µM
[6] = HPLM + 10% dialyzed FBS, 0.19 µM
[7] = HPLM + 10% dialyzed FBS, 0.569 µM
[8] = HPLM + 10% dialyzed FBS, 1.71 µM
[9] = HPLM + 10% dialyzed FBS, 5.12 µM
[10] = HPLM + 10% dialyzed FBS, 15.4 µM
[11] = HPLM + 10% dialyzed FBS, 46.1 µM
[12] = RPMI 5 mM glucose + 10% FBS, 0.000781 µM
[13] = RPMI 5 mM glucose + 10% FBS, 0.00234 µM
[14] = RPMI 5 mM glucose + 10% FBS, 0.00702 µM
[15] = RPMI 5 mM glucose + 10% FBS, 0.0211 µM
[16] = RPMI 5 mM glucose + 10% FBS, 0.0632 µM
[17] = RPMI 5 mM glucose + 10% FBS, 0.19 µM
[18] = RPMI 5 mM glucose + 10% FBS, 0.569 µM
[19] = RPMI 5 mM glucose + 10% FBS, 1.71 µM
[20] = RPMI 5 mM glucose + 10% FBS, 5.12 µM
[21] = RPMI 5 mM glucose + 10% FBS, 15.4 µM
[22] = RPMI 5 mM glucose + 10% FBS, 46.1 µM
[23] = RPMI 5 mM glucose + 10% dialyzed FBS, 0.000781 µM
[24] = RPMI 5 mM glucose + 10% dialyzed FBS, 0.00234 µM
[25] = RPMI 5 mM glucose + 10% dialyzed FBS, 0.00702 µM
[26] = RPMI 5 mM glucose + 10% dialyzed FBS, 0.0211 µM
[27] = RPMI 5 mM glucose + 10% dialyzed FBS, 0.0632 µM
[28] = RPMI 5 mM glucose + 10% dialyzed FBS, 0.19 µM
[29] = RPMI 5 mM glucose + 10% dialyzed FBS, 0.569 µM
[30] = RPMI 5 mM glucose + 10% dialyzed FBS, 1.71 µM
[31] = RPMI 5 mM glucose + 10% dialyzed FBS, 5.12 µM
[32] = RPMI 5 mM glucose + 10% dialyzed FBS, 15.4 µM
[33] = RPMI 5 mM glucose + 10% dialyzed FBS, 46.1 µM

Compound | cell viability [1] [%] | cell viability [2] [%] | cell viability [3] [%] | cell viability [4] [%] | cell viability [5] [%] | cell viability [6] [%] | cell viability [7] [%] | cell viability [8] [%] | cell viability [9] [%] | cell viability [10] [%] | cell viability [11] [%] | cell viability [12] [%] | cell viability [13] [%] | cell viability [14] [%] | cell viability [15] [%] | cell viability [16] [%] | cell viability [17] [%] | cell viability [18] [%] | cell viability [19] [%] | cell viability [20] [%] | cell viability [21] [%] | cell viability [22] [%] | cell viability [23] [%] | cell viability [24] [%] | cell viability [25] [%] | cell viability [26] [%] | cell viability [27] [%] | cell viability [28] [%] | cell viability [29] [%] | cell viability [30] [%] | cell viability [31] [%] | cell viability [32] [%] | cell viability [33] [%]
CNC(=O)[C@H](CC/1=C/N=C\2/C=C\C\C=C12)NC(=O)[C@H](CC(C)C)CC(=O)NO | 116 | 108 | 103 | 99.5 | 116 | 111 | 116 | 105 | 108 | 30.9 | 29.8 | 99.5 | 107 | 98 | 102 | 108 | 108 | 113 | 106 | 97.9 | 28.4 | 33.3 | 105 | 107 | 107 | 112 | 115 | 114 | 114 | 105 | 107 | 24.7 | 32.1
COc1cc(CNC(=O)CCCC/C=C/C(C)C)ccc1O | 108 | 99.4 | 106 | 102 | 102 | 101 | 13.3 | 11 | 11 | 12.3 | 14.1 | 104 | 105 | 109 | 106 | 104 | 119 | 95.2 | 12.2 | 12.2 | 10.1 | 10.5 | 111 | 103 | 106 | 108 | 116 | 112 | 32.9 | 21.3 | 22.2 | 14.3 | 15.7
COc1cc(O)c2c(c1)C(=O)c1cc(C)cc(O)c1C2=O | 124 | 120 | 122 | 118 | 122 | 119 | 112 | 114 | 110 | 98.9 | 41.7 | 121 | 118 | 121 | 119 | 121 | 116 | 113 | 113 | 120 | 97.6 | 45.2 |  |  |  |  |  |  |  |  |  |  | 
CC(O)C1C2C(C)\C(=C(/N2C1=O)C(O)=O)SC3CNC(C3)C(=O)N(C)C (stereo not given) | 84 | 82.1 | 86.8 | 88.3 | 93.2 | 92.9 | 99.6 | 96.5 | 90.4 | 92.8 | 88.1 | 77.1 | 78.2 | 79.4 | 81.7 | 82.3 | 85.5 | 82.7 | 77.6 | 84.7 | 88.2 | 85.6 | 85.7 | 80 | 85.8 | 88 | 88.8 | 89.2 | 86.2 | 86.2 | 86.5 | 88.2 | 95.5
CCN(c1ccccc1)c1cc(NC)[n+](C)c(C)n1 | 108 | 111 | 108 | 106 | 111 | 114 | 107 | 107 | 119 | 102 | 101 | 112 | 114 | 120 | 114 | 118 | 106 | 114 | 105 | 108 | 109 | 98.9 | 114 | 109 | 112 | 116 | 111 | 118 | 117 | 117 | 111 | 104 | 106
CO/N=C(/C(=O)N[C@@H]1C(=O)N2C(C(=O)O)=C(CSC(=O)c3ccco3)CS[C@H]12)c1csc(N)n1 | 100 | 108 | 112 | 119 | 109 | 111 | 116 | 118 | 113 | 109 | 110 | 98.1 | 100 | 117 | 107 | 105 | 106 | 98.6 | 104 | 98.9 | 103 | 96.2 | 95.6 | 104 | 112 | 108 | 112 | 109 | 104 | 103 | 102 | 107 | 104
O=C(/C=C/c1ccc(O)cc1)c1ccc(O)cc1O | 108 | 98.4 | 95 | 109 | 106 | 104 | 103 | 95.9 | 99.6 | 87.8 | 43.1 | 108 | 103 | 110 | 105 | 111 | 108 | 98.3 | 98.5 | 107 | 65.9 | 11.7 | 105 | 101 | 109 | 106 | 119 | 113 | 104 | 97.3 | 95.5 | 41.8 | 9.51
